Values joined by “and” are separate entries in the source; they are usually repeats but may differ in a detail not shown here. Identical values can stand only once. Toxic doses and inconclusive results are not listed. Rule for the calls: active = survival T/C of 150% or more; inactive = T/C below 125% in these data.
Tested on: P388 leukemia ip, CD2F1 mice, survival T/C
Assay: NCI In Vivo Anticancer Drug Screen. Data for tumor model P388 Leukemia (intraperitoneal) in CD2F1 (CDF1) mice
Conditions: endpoint: median survival time, higher = longer survival
How it was run: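 Mice carrying the transplanted tumor received test compound or vehicle. Survival was recorded in each group, and the value is the treated-group measurement divided by that of the vehicle-treated control group.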

[1] = dose: 60.0 mg/kg/injection, schedule: Q01DX005 (ip), vehicle: saline with Tween-80
[2] = dose: 120.0 mg/kg/injection, schedule: Q01DX005 (ip), vehicle: saline with Tween-80
[3] = dose: 240.0 mg/kg/injection, schedule: Q01DX005 (ip), vehicle: saline with Tween-80
[4] = dose: 12.5 mg/kg/injection, schedule: Q01DX009 (ip), vehicle: saline with Tween-80
[5] = dose: 25.0 mg/kg/injection, schedule: Q01DX009 (ip), vehicle: saline with Tween-80
[6] = dose: 50.0 mg/kg/injection, schedule: Q01DX009 (ip), vehicle: saline with Tween-80
[7] = dose: 60.0 mg/kg/injection, schedule: Q01DX005 (ip), vehicle: Klucel (hydroxypropylcellulose) (HPC)
[8] = dose: 120.0 mg/kg/injection, schedule: Q01DX005 (ip), vehicle: Klucel (hydroxypropylcellulose) (HPC)
[9] = dose: 240.0 mg/kg/injection, schedule: Q01DX005 (ip), vehicle: Klucel (hydroxypropylcellulose) (HPC)
[10] = dose: 50.0 mg/kg/injection, schedule: Q01DX005 (ip), vehicle: saline with Tween-80
[11] = dose: 100.0 mg/kg/injection, schedule: Q01DX005 (ip), vehicle: saline with Tween-80
[12] = dose: 200.0 mg/kg/injection, schedule: Q01DX005 (ip), vehicle: saline with Tween-80
[13] = dose: 50.0 mg/kg/injection, schedule: Q01DX009 (ip), vehicle: Klucel (hydroxypropylcellulose) (HPC)
[14] = dose: 200.0 mg/kg/injection, schedule: Q01DX009 (ip), vehicle: Klucel (hydroxypropylcellulose) (HPC)
[15] = dose: 50.0 mg/kg/injection, schedule: Q01DX005 (ip), vehicle: Klucel (hydroxypropylcellulose) (HPC)
[16] = dose: 100.0 mg/kg/injection, schedule: Q01DX005 (ip), vehicle: Klucel (hydroxypropylcellulose) (HPC)
[17] = dose: 200.0 mg/kg/injection, schedule: Q01DX005 (ip), vehicle: Klucel (hydroxypropylcellulose) (HPC)

Measured: T/C

Cc1csc2nc(-c3ccccc3)c(/C=N/NC(=O)CN(C)C)n12
inactive: [1] 110 % of control | [2] 103 % of control | [3] 99 % of control

CCOc1ccc(NC(=O)C(=O)NNC(=S)NC)cc1
inactive: [4] 94 % of control | [5] 92 % of control | [6] 92 % of control and 97 % of control

Cc1ccc(N=NN(C)C)cc1
inactive: [4] 110 % of control | dose: 12.5 mg/kg/injection, schedule: Q04DX003 (ip), vehicle: saline with Tween-80 104 % of control | [5] 115 % of control | dose: 25.0 mg/kg/injection, schedule: Q04DX003 (ip), vehicle: saline with Tween-80 100 % of control | dose: 33.0 mg/kg/injection, schedule: Q01DX009 (ip), vehicle: saline with Tween-80 118 % of control | [6] 122 % of control | dose: 50.0 mg/kg/injection, schedule: Q04DX003 (ip), vehicle: saline with Tween-80 109 % of control

CCC1(C(=O)c2ccccc2)C(C(=O)OC)=NC(=S)N=C1C(=O)OC
inactive: [1] 99 % of control | [2] 90 % of control | [3] 100 % of control

O=S(=O)(CCc1ccccc1)c1nc2ccccc2s1
inactive: [7] 99 % of control | [8] 100 % of control | [9] 101 % of control

O=C(CC[N+](=O)[O-])OCC1OC(O)C(OC(=O)CC[N+](=O)[O-])C(O)C1O (stereo not drawn)
inactive: dose: 12.5 mg/kg/injection, schedule: Q01DX005 (ip), vehicle: distilled water + Tween-80 100 % of control | dose: 18.75 mg/kg/injection, schedule: Q01DX001 (ip), vehicle: saline + alcohol 100 % of control | dose: 25.0 mg/kg/injection, schedule: Q01DX005 (ip), vehicle: distilled water + Tween-80 97 % of control | dose: 37.5 mg/kg/injection, schedule: Q01DX001 (ip), vehicle: saline + alcohol 101 % of control | dose: 50.0 mg/kg/injection, schedule: Q01DX005 (ip), vehicle: distilled water + Tween-80 100 % of control | dose: 75.0 mg/kg/injection, schedule: Q01DX001 (ip), vehicle: saline + alcohol 109 % of control | dose: 100.0 mg/kg/injection, schedule: Q01DX005 (ip), vehicle: distilled water + Tween-80 98 % of control | dose: 200.0 mg/kg/injection, schedule: Q01DX005 (ip), vehicle: distilled water + Tween-80 100 % of control

Cc1cc(NC(=O)C(=O)CC(=O)c2cccnc2)no1
inactive: [10] 102 % of control | [11] 101 % of control | [12] 101 % of control

O=S(=O)(O)SCCNCCCCC1CCCCC1
inactive: dose: 3.75 mg/kg/injection, schedule: Q01DX005 (ip), vehicle: saline with Tween-80 99 % of control | dose: 7.5 mg/kg/injection, schedule: Q01DX005 (ip), vehicle: saline with Tween-80 90 % of control | dose: 15.0 mg/kg/injection, schedule: Q01DX005 (ip), vehicle: saline with Tween-80 101 % of control and 104 % of control | dose: 30.0 mg/kg/injection, schedule: Q01DX005 (ip), vehicle: saline with Tween-80 111 % of control | [1] 120 % of control

CCCCNC1=CC(=S)NC(C)(C)C1
inactive: [13] 104 % of control | dose: 100.0 mg/kg/injection, schedule: Q01DX009 (ip), vehicle: Klucel (hydroxypropylcellulose) (HPC) 86 % of control | [14] 104 % of control

COC(=O)C1=C/CCCN(C(c2ccccc2)c2ccccc2)/C=C\1C(=O)OC
inactive: dose: 100.0 mg/kg/injection, schedule: Q01DX001 (ip), vehicle: saline 99 % of control | dose: 200.0 mg/kg/injection, schedule: Q01DX001 (ip), vehicle: saline 91 % of control | dose: 400.0 mg/kg/injection, schedule: Q01DX001 (ip), vehicle: saline 95 % of control

CN(C)Cc1cccc(CN(C)C)[c]1[Sn]([Br])([c]1ccccc1)[c]1ccccc1
inactive: dose: 1.56 mg/kg/injection, schedule: Q01DX009 (ip), vehicle: saline 104 % of control | dose: 3.12 mg/kg/injection, schedule: Q01DX009 (ip), vehicle: saline 106 % of control | dose: 12.5 mg/kg/injection, schedule: Q01DX009 (ip), vehicle: saline 120 % of control

COc1cc(/C=N/NC(=O)c2cc(OC)c(OC)c(OC)c2)ccc1O
inactive: [1] 99 % of control | [2] 101 % of control | [3] 95 % of control

O=C(Nc1ccc(Br)c2ccccc12)c1ccc2ccccc2c1O
inactive: [1] 91 % of control | [2] 92 % of control

O=S(=O)(c1cnccc1N1CCN(CCO)CC1)N1CCCCC1
inactive: dose: 50.0 mg/kg/injection, schedule: Q01DX009 (ip), vehicle: saline 101 % of control | dose: 100.0 mg/kg/injection, schedule: Q01DX009 (ip), vehicle: saline 105 % of control

NC(=O)C(N)CCCC1NC(=S)N(c2ccccc2)C1=O (stereo not drawn)
inactive: [7] 92 % of control | [8] 93 % of control | [9] 86 % of control

CCOC(=O)C1CCCC(=O)C1Cc1cccc(OC)c1 (stereo not drawn)
inactive: dose: 50.0 mg/kg/injection, schedule: Q01DX009 (ip), vehicle: other 100 % of control | dose: 100.0 mg/kg/injection, schedule: Q01DX009 (ip), vehicle: other 106 % of control | dose: 200.0 mg/kg/injection, schedule: Q01DX009 (ip), vehicle: other 100 % of control

NS(=O)(=O)c1ccc(N=Cc2cnc3ccccc3c2)cc1
inactive: dose: 2.5 mg/kg/injection, schedule: Q01DX009 (ip), vehicle: saline 100 % of control | dose: 5.0 mg/kg/injection, schedule: Q01DX009 (ip), vehicle: saline 97 % of control | dose: 10.0 mg/kg/injection, schedule: Q01DX009 (ip), vehicle: saline 100 % of control and 91 % of control | dose: 20.0 mg/kg/injection, schedule: Q01DX009 (ip), vehicle: saline 93 % of control

O=C1CSc2ccccc2N1
inactive: dose: 6.25 mg/kg/injection, schedule: Q01DX009 (ip), vehicle: suspension in saline 102 % of control | dose: 12.5 mg/kg/injection, schedule: Q01DX009 (ip), vehicle: Klucel (hydroxypropylcellulose) (HPC) 105 % of control | dose: 12.5 mg/kg/injection, schedule: Q01DX009 (ip), vehicle: suspension in saline 104 % of control | dose: 25.0 mg/kg/injection, schedule: Q01DX009 (ip), vehicle: Klucel (hydroxypropylcellulose) (HPC) 97 % of control | dose: 25.0 mg/kg/injection, schedule: Q01DX009 (ip), vehicle: suspension in saline 99 % of control | [13] 88 % of control and 95 % of control | dose: 50.0 mg/kg/injection, schedule: Q01DX009 (ip), vehicle: suspension in saline 104 % of control | [14] 100 % of control | dose: 400.0 mg/kg/injection, schedule: Q01DX009 (ip), vehicle: Klucel (hydroxypropylcellulose) (HPC) 99 % of control

Cc1cc(Br)c(NC(=O)c2c(-c3c(Cl)cccc3Cl)noc2C)c(Br)c1
inactive: [7] 88 % of control | [8] 95 % of control

CCN=C(C)C1=C(O)c2ccccc2C1=O
inactive: dose: 100.0 mg/kg/injection, schedule: Q04DX002 (ip), vehicle: saline with Tween-80 97 % of control | dose: 200.0 mg/kg/injection, schedule: Q04DX002 (ip), vehicle: saline with Tween-80 98 % of control | dose: 400.0 mg/kg/injection, schedule: Q04DX002 (ip), vehicle: saline with Tween-80 98 % of control

Nc1nc(-c2cc(-c3cccc4ccccc34)nc(N)n2)cc(-c2cccc3ccccc23)n1
inactive: dose: 60.0 mg/kg/injection, schedule: Q01DX005 (ip), vehicle: suspension in saline 101 % of control | dose: 120.0 mg/kg/injection, schedule: Q01DX005 (ip), vehicle: suspension in saline 100 % of control | dose: 240.0 mg/kg/injection, schedule: Q01DX005 (ip), vehicle: suspension in saline 105 % of control

Nc1nc2c(ncn2[C@@H](CO)OC(CO)CO)c(=O)[nH]1
inactive: [15] 99 % of control | [16] 98 % of control | [17] 98 % of control

COC(=O)NC1(NC(=O)OC)NC(=O)c2cc(OC)c(OC)cc2N1
inactive: dose: 25.0 mg/kg/injection, schedule: Q01DX005 (ip), vehicle: saline with Tween-80 102 % of control | [10] 99 % of control | [11] 98 % of control | [12] 118 % of control

Cc1cnc(Sc2ncccc2[N+](=O)[O-])[nH]c1=O
inactive: [15] 107 % of control | [16] 93 % of control | [17] 97 % of control
